Holding throughout (experiment): NCI tumour cell line growth inhibition, 48 h
For assay [1], the system named is HCT-116 colon.
For assay [2], the system named is HOP-92 NSCLC.
In assay [3] the test system is HT29 colon.
For assay [4], the system named is K-562 leukemia.
In assay [5] the test system is LOX IMVI melanoma.
For assay [6], the system named is MALME-3M melanoma.
In assay [7] the test system is NCI-H226 lung.
Assay [8] deals with OVCAR-3 ovarian.
The test system of assay [9] is SF-295 CNS.
The subject of assay [10] is SR leukemia.

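Grown in 96-well plates, cells were treated for 48 hours with each compound at five concentrations. Insufficient inhibition: endpoint recorded as highest concentration tested. GI50 marks 50% less growth. TGI is the concentration that stops growth completely.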

As for `NC(=O)c1c(NC(=O)c2cccc(C(F)(F)F)c2)sc2c1CCC(=O)C2`, the GI50 in assay [1] was 0.249 µM; in [2], 0.985 µM; in assay [3], 0.378 µM; in assay [4], 0.124 µM; in [5], 0.356 µM; in [6], 0.869 µM. Moreover, the GI50 is 5.37 µM in assay [7], 0.364 µM in assay [8], 1.23 µM in [9] and 0.424 µM in [10]. For the same compound, the TGI in assay [1] was above 32.2 µM; in [2], 3.47 µM; in [3], above 100 µM; in assay [5], 2.8 µM; in [6], 3.73 µM; in assay [7] it was above 100 µM. The TGI was 1.34 µM in assay [8], 9.07 µM in assay [9] and above 100 µM in assay [10].

Regarding `CC(=O)OC1Oc2cc(C)c(C)cc2-c2oc(=O)c(-c3ccccc3)cc21` (stereo not drawn), the GI50 was 0.455 µM in assay [1]; 1.98 µM in assay [2]; 0.323 µM in assay [3]; 0.178 µM in assay [4]; 1.47 µM in [5]; 0.407 µM in assay [6]. Moreover, the GI50 was 2.77 µM in [7], 0.114 µM in [8], 0.448 µM in assay [9] and 0.215 µM in [10]. In addition, the TGI in assay [1] was 46.9 µM; in assay [2], 61.8 µM; in [3] it was 4.39 µM; in [4] it was above 100 µM; in [5], above 100 µM; in assay [6] it was above 34.7 µM. The TGI in assay [8] is 0.355 µM; in assay [9], above 34.9 µM; in [10] it was above 100 µM.

On to `CN1C=C(C(N)=O)C2CC(O)[C@@](NC(=O)CS(N)(=O)=O)(C(=O)O)C2C1` (stereo partly drawn), for which the TGI in assay [1] was 18.7 µM; in assay [2], 5.05 µM; in [3], 10.6 µM; in assay [4] it was above 100 µM; in assay [5], 5.58 µM; in assay [6], 20.3 µM. Besides, the TGI in assay [7] came out at 8.52 µM; in assay [8] it was 42.6 µM; in assay [9], 6.97 µM; in [10] it was 15.7 µM.

For `CC(=O)c1c(Nc2ccc(F)c(F)c2F)[nH]c2c(F)cc(F)cc2c1=O`, the GI50 in assay [1] is 0.291 µM; in assay [2], 0.116 µM; in assay [3] it was 0.356 µM; in assay [4], 0.347 µM; in assay [5], 0.333 µM; in assay [6], 0.207 µM. Also, the GI50 in assay [7] is 0.297 µM; in [8], 0.311 µM; in assay [9] it was 0.308 µM; in [10] it was 0.45 µM. The TGI in [1] was 5.57 µM; in assay [2] it was 0.466 µM; in [3], 17.5 µM; in assay [4], above 100 µM; in assay [5], 11.3 µM; in assay [6], 0.643 µM. Also, the TGI in assay [7] is 1.87 µM; in [8] it was 11.6 µM; in assay [9], 1.5 µM; in assay [10] it was above 45.9 µM.

Turning to `COc1ccc2nc3cc(Cl)ccc3c(Nc3ccc(O)c(CN4CCCC4)c3)c2c1`, the GI50 in assay [1] was 1.41 µM; in assay [2], 3.92 µM; in assay [3], 1.32 µM; in [4], 1.99 µM; in [5] it was 1.73 µM; in assay [6], 2.41 µM. Besides, the GI50 in assay [7] was 1.84 µM; in assay [8], 3.54 µM; in [9], 1.6 µM; in assay [10] it was 0.534 µM. Besides, the TGI was 2.92 µM in assay [1]; 16 µM in [2]; 3.44 µM in assay [3]; 6.44 µM in assay [4]; 3.47 µM in [5]; 4.29 µM in assay [6]. The TGI in assay [7] is 3.75 µM; in assay [8] it was 15 µM; in assay [9] it was 3.53 µM; in assay [10] it was 3.3 µM.

In the case of `COc1ccc(-c2nn(-c3cccc(Cl)c3)cc2/C=C2\C(=N)N(c3ccccc3)N=C2N)cc1`, the GI50 in assay [1] was 1.59 µM; in assay [2], 22.4 µM; in assay [3], 2.57 µM; in [4], 0.352 µM; in [5] it was 0.337 µM; in [6], 4.9 µM. Besides, the GI50 in [7] is 6.58 µM; in assay [8] it was 3.09 µM; in assay [9] it was 0.271 µM; in [10], 1.04 µM. The TGI is 17.2 µM in assay [1]; above 81.4 µM in [2]; 24.5 µM in assay [3]; 32.6 µM in assay [4]; 4.58 µM in assay [5]; 46.1 µM in [6]. For the same compound, the TGI in assay [7] is above 66.8 µM; in assay [8] it was 20.4 µM; in assay [9] it was 2.83 µM; in [10], 15.1 µM.

Source of the values: PubChem BioAssay (NCI).
